Test results: paper PMC5428777, “Molecular Characteristics and Serodiagnostic Potential of Dihydrofolate Reductase from Echinococcus granulosus” (Scientific Reports, 2017)
Like-named read-outs stand apart in the source and are kept apart here.

Tests used:
[1] = tested on: E. granulosus protoscoleces (PSCs); assay: microbe, parasite or virus in culture; format: cell-based, Echinococcus granulosus; settings: for effect on PSCs (protoscolex viability): all three concentrations tested
Procedure: Cysts of E. granulosus were obtained from a slaughterhouse in Qinghai Province, China. The PSCs were separated in sterile conditions and washed three times in phosphate-buffered saline (PBS). Rinsed PSCs were diluted to a concentration of 1,500 mL^−1 and maintained as previously described, [47]. Briefly, PSCs were cultured in RPMI 1640 medium (Hyclone) with 10% fetal bovine serum (Hyclone), 10% hydatid fluid, 100 U.mL^−1 penicillin G and 100 μg.mL^−1 streptomycin (Sigma, USA). Adult worms were collected from the small intestine of a 2-month-old dog 35 days post-infection with 20,000 PSCs. A 5-month-old dog and two 9-week-old female New Zealand white rabbits were obtained from the Laboratory Animal Center of Sichuan Agricultural University. All animals were provided with food pellets and sterilised water ad libitum.
[…]. PSCs incubated with only assay buffer (DHFR assay kit; Sigma) or DMSO were used as negative controls. The vitality of protoscoleces was assessed using a Trypan Blue exclusion test[50], [51]. The daily percentages of PSCs vitality were calculated on six microscopic fields covering approximately 10–20 PSCs. The effect of per drug concentration was monitored in triplicate and in two separate trials.

rEg-DHFR [2] = target: T1, rEg-DHFR (Echinococcus granulosus, UniProt U6JJS2); assay: Inhibition of rEg-DHFR enzyme activity by antifolates (DHFR assay kit, absorbance 340 nm); format: biochemical
T1 sequence (U6JJS2 1-191): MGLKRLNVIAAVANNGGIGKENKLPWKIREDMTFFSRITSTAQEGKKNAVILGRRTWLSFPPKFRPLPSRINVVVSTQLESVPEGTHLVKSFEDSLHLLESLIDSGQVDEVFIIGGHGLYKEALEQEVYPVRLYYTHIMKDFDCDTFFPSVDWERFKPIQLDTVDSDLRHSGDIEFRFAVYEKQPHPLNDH
Procedure: The temperature was controlled at 22 °C.
The IC50 was calculated using GraphPad Prism software by nonlinear curve-fitting.

rEg-DHFR [3] = target: T1, rEg-DHFR; assay: Enzyme kinetics of rEg-DHFR towards substrate DHF (Michaelis-Menten fit); format: biochemical; settings: 0-120 μM DHF, 60 μM NADPH, 22 °C
Procedure: The enzymatic characteristics of rEg-DHFR and human DHFR enzyme (DHFR assay kit; Sigma) were analysed using a DHFR assay kit (Sigma) following the manufacturer’s instructions[41]. Briefly, a range of purified rEg-DHFR concentrations was added to the assay buffer and mixed well and the optimal concentration was determined. Reaction progress was measured based on the decrease in absorbance at 340 nm. Data was recorded at 25 s intervals for 2.5 min. The temperature was controlled at 22 °C. […] Kinetic parameters (Vmax and Km) were calculated using GraphPad Prism® software (San Diego, CA, USA; http://www.graphpad.com) based on a Michaelis-Menten curve fit.

[4] = tested on: E. granulosus protoscoleces (PSCs); set-up: method as in PMID 11133110; settings: positive control; ref [30]; cited from earlier work
[5] = substrate: Nc1nc2c(c(=O)[nH]1)N=C(CNc1ccc(C(=O)N[C@@H](CCC(=O)O)C(=O)O)cc1)CN2; assay: purified protein, by the assay type; settings: other: 0-120 μM DHF, 60 μM NADPH, 22 °C
[6] = 50 μM dihydrofolic acid, 60 μM NADPH, mean ± SD, read-out: IC50 for rEg-DHFR

Molecule: Nc1nc(N)c2nc(CNc3ccc(C(=O)N[C@@H](CCC(=O)O)C(=O)O)cc3)cnc2n1 [Aminopterin, aminopterin]
- effect on PSCs (protoscolex viability) ([1]; after 7 days of incubation): slight effect
- IC50 (rEg-DHFR [2]): 63.7 ± 6.76 nM

Molecule: Nc1nc2c(c(=O)[nH]1)N=C(CNc1ccc(C(=O)N[C@@H](CCC(=O)O)C(=O)O)cc1)CN2 [DHF, 7,8-dihydrofolate]
- Vmax of rEg-DHFR for substrate DHF (rEg-DHFR [3]): 2.384 ± 0.01874 µmol/min/mg

Molecule: CN(Cc1cnc2nc(N)nc(N)c2n1)c1ccc(C(=O)N[C@@H](CCC(=O)O)C(=O)O)cc1 [Methotrexate, methotrexate]
- effect on PSCs (protoscolex viability) ([1]; after 7 days of incubation): slight effect

Molecule: O=C(C1CCCCC1)N1CC(=O)N2CCc3ccccc3C2C1 (stereo not drawn) [Praziquantel]
- protoscolicidal activity [4]: exhibit protoscolicidal activity

Molecule: CCc1nc(N)nc(N)c1-c1ccc(Cl)cc1 [Pyrimethamine, pyrimethamine]
- percentage vitality of PSCs ([1]; 800 μM, after 7 days of incubation, control 82.65 ± 6.11%): 20.67 ± 2.49%
- IC50 (rEg-DHFR [2]; [6]): 860 ± 93.5 nM

Molecule: COc1cc(Cc2cnc(N)nc2N)cc(OC)c1OC [Trimethoprim, trimethoprim]
- viability at 3000 µM ([1]; Echinococcus granulosus, 168 h, read-out: PSCs remaining viable in culture): 38.7 ± 6.18%
- IC50 (rEg-DHFR [2]; [6]): 30800 ± 2090 nM

B1: human DHFR (Homo sapiens) (protein)
chain: MVGSLNCIVAVSQNMGIGKNGDLPWPPLRNEFRYFQRMTTTSSVEGKQNLVIMGKKTWFSIPEKNRPLKGRINLVLSRELKEPPQGAHFLSRSLDDALKLTEQPELANKVDMVWIVGGSSVYKEAMNHPGHLKLFVTRIMQDFESDTFFPEIDLEKYKLLPEYPGVLSDVQEEKGIKYKFEVYEKND
- Km [5]: 14.61 ± 0.6590 µM
- Vmax [5]: 3.370 ± 0.02327 µmol/min/mg

B2: rEg-DHFR (Echinococcus granulosus) (protein)
chain: T1 sequence (U6JJS2 1-191)
- Km [5]: 18.74 ± 0.5651 µM
